Active and inactive are the calls of the source.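 Rule for the calls: active = signal drops with AC50 under 10 µM, fitted no higher than twice the top valid tested dose; inactive = effect in the opposite direction, plus the rest.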
tested on: NIH3T3 viability, CellTiter-Glo ATP luminescence, 48 h; test: NIH3T3 cell cytotoxicity, dose response, cytotoxicity control, plate reader, dry powder (AID 743405); settings: not given

For `COc1ccc(OCc2cccc(C(=O)O)c2)cc1`, which AC50 is on record?
The AC50 was > 70 µM (inactive).

With `Cc1ccc(-c2cn3cc(C)ccc3n2)cc1` as the compound, how does the AC50 read?
The AC50 was > 70 µM (inactive).

Which AC50 does the source give for `Cc1c(C)c2ccc(OCC(=O)Nc3ccccn3)c(C)c2oc1=O` here?
Its AC50 is 36.4 µM.

Which AC50 does the source give for `Cc1cccc(CSc2cccc3cccnc23)c1` here?
The AC50 was > 70 µM (inactive).

With `COc1c(CC=C(C)C)cc(C2CC(=O)c3c(O)cc(O)cc3O2)cc1CC=C(C)C` (stereo not drawn) as the compound, how does the AC50 read?
Its AC50 is 32.9 µM.

tested on: not listed separately; test: as above; settings: NIH3T3 viability, CellTiter-Glo ATP luminescence, 48 h; at 35 µM (top of the series)

With `Cc1cc(C(=O)COC(=O)c2ccccc2O)c(C)n1Cc1cccs1` as the compound, how does the activity change, negative = cytotoxicity read?
Its activity change, negative = cytotoxicity is -7.18% (inactive).

For `Cc1ccc(C(=O)Nc2cnc3ccccc3c2)cc1`, which activity change, negative = cytotoxicity is on record?
The activity change, negative = cytotoxicity was -0.872% (inactive).

For `Cc1cc(S(=O)(=O)NCc2ccncc2)c(C)cc1Br`, which activity change, negative = cytotoxicity is on record?
Its activity change, negative = cytotoxicity is -1.39% (inactive).

For `O=C(NCCc1ccccc1)c1ccc2c(c1)OCCCO2`, which activity change, negative = cytotoxicity is on record?
Its activity change, negative = cytotoxicity is 4.4% (inactive).

With `CCN(CC)Cc1c(O)ccc2c1O/C(=C\C=C\c1ccccc1)C2=O` as the compound, how does the activity change, negative = cytotoxicity read?
The activity change, negative = cytotoxicity was 9.2% (inactive).

Which activity change, negative = cytotoxicity does the source give for `O=C(O)c1cccc(COc2ccccc2Cl)c1` here?
The activity change, negative = cytotoxicity was -3.99% (inactive).

With `COc1ccc(CNC(=O)C(C)n2ccc3cc(S(=O)(=O)N4CCCCCC4)ccc32)cc1` (stereo not drawn) as the compound, how does the activity change, negative = cytotoxicity read?
Its activity change, negative = cytotoxicity is -0.861% (inactive).

Which activity change, negative = cytotoxicity does the source give for `COc1ccc(-n2ncc3c(N4CCCCC4)ncnc32)cc1` here?
The activity change, negative = cytotoxicity was -2.9% (inactive).

Which activity change, negative = cytotoxicity does the source give for `O=C(CN1C(=O)c2ccccc2S1(=O)=O)c1ccc(Cl)cc1Cl` here?
Its activity change, negative = cytotoxicity is 5.03% (inactive).

For `O=C(c1n[nH]c(=O)c2ccccc12)N1CCN(C2c3ccccc3-c3ccccc32)CC1`, which activity change, negative = cytotoxicity is on record?
The activity change, negative = cytotoxicity was 8.43% (inactive).

With `Cc1ccc(CNC(=O)CSc2c3c(nc4ccc(Cl)cc24)CCCC3)o1` as the compound, how does the activity change, negative = cytotoxicity read?
The activity change, negative = cytotoxicity was 11.2% (inactive).

With `CCOC(=O)Cn1c(S(=O)(=O)Cc2ccccc2Cl)nc(-c2ccccc2)c1-c1ccccc1` as the compound, how does the activity change, negative = cytotoxicity read?
The activity change, negative = cytotoxicity was 3.41% (inactive).

Which activity change, negative = cytotoxicity does the source give for `O=C(CN1C(=O)c2ccccc2S1(=O)=O)c1ccc2c(c1)OCCCO2` here?
The activity change, negative = cytotoxicity was 8.65% (inactive).

Which activity change, negative = cytotoxicity does the source give for `COc1ccc(CNC(=O)C(c2ccc(C)cc2)N(Cc2cccs2)C(=O)c2ccc3c(c2)OCCO3)cc1` (stereo not drawn) here?
Its activity change, negative = cytotoxicity is -4.92% (inactive).

Which activity change, negative = cytotoxicity does the source give for `O=C1S/C(=C\c2ccc(N3CCOCC3)o2)C(=O)N1Cc1c(F)cccc1Cl` here?
The activity change, negative = cytotoxicity was 92.2% (inactive).

Which activity change, negative = cytotoxicity does the source give for `Cc1nc(SCC(=O)Nc2nc3ccccc3s2)c(C#N)c(C)c1C` here?
Its activity change, negative = cytotoxicity is -9.06% (inactive).

With `O=C(NCCc1ccccc1)c1ccc2c(c1)OCCO2` as the compound, how does the activity change, negative = cytotoxicity read?
Its activity change, negative = cytotoxicity is 5.21% (inactive).

With `CCSc1nnc(NC(=O)c2nc(S(=O)(=O)Cc3ccc(F)cc3)ncc2Cl)s1` as the compound, how does the activity change, negative = cytotoxicity read?
Its activity change, negative = cytotoxicity is 45.4% (inactive).

— PubChem BioAssay AID743405 (Broad Institute, 2014)
